Patent publication US10828305B2 (SHANGHAI PHARMACEUTICALS HOLDING CO., LTD., priority 2016, dated 2020)
Like-named read-outs stand apart in the source and are kept apart here.

What was measured:
[1] = molecular target: T1, CYP1A2 (Homo sapiens, UniProt P05177); experiment: Direct inhibition of CYP1A2, human liver microsome; type: in vitro ADME; conditions: probe phenacetin, read-out: IC50 1A2 (Phenacetin)
T1 construct: from tissue; host or cells: human liver microsomes
T1 sequence (P05177 1-516): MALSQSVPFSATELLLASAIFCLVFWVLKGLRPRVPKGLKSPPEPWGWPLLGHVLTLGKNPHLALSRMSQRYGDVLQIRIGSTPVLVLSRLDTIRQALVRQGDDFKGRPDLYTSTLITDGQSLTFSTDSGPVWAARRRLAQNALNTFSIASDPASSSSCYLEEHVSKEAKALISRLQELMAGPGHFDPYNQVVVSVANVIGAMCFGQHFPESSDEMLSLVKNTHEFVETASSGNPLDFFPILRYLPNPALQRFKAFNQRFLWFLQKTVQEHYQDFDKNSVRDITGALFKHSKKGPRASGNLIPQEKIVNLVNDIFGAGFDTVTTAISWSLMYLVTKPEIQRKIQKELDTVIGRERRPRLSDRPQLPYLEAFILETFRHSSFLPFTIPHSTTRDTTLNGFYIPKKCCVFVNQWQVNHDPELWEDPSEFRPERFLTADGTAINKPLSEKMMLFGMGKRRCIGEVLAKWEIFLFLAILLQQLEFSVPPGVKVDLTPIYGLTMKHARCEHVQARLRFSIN
Procedure: (§1) Research on Direct Inhibition of CYP3A4, CYP2D6, CYP2C9, CYP2C19, CYP1A2
(§2) 100 μL human liver microsome (with final concentration of 0.2 mg/mL) was used for direct inhibition under warm incubation, the positive control system contained NADPH (with final concentration of 1 mmol/L), a mixture of positive inhibitors (ketoconazole 0.01 to 10 μmol/L, quinidine 0.01 to 10 μmol/L, sulfaphenazole 0.1 to 100 μmol/L, tranylcypromine 1 to 1000 μmot/L, α-naphthoflavone 0.01 to 10 μmol/L), and a substrate mixture (with final concentration of midazolam 10 μmol/L, testosterone 100 μmol/L, dextromethorphan 10 μmol/L, diclofenac 20 μmol/L, S-mephenytoin 50 μmol/L, phenacetin 100 μmol/L), and the reaction was terminated after incubation for 20 min. The positive inhibitor was replaced with 0.1 to 100 μmol/L test compound in the test compound group. The reaction was terminated with acetonitrile containing 0.11 μg/mL internal standard tinidazole (1:3), vortexed for 10 min, centrifuged at 6000×g for 10 min, 50 μL supernatant was taken and put into a 96-well plate for injection.
(§3) In this experiment, IC50 of inhibition of the compound on the enzyme was calculated by measuring relative production of the probe metabolite. The activity of CYP3A4 was simultaneously characterized by two probes of midazolam and testosterone.

[2] = molecular target: T2, CYP3A4 (Homo sapiens, UniProt P08684); experiment: Direct inhibition of CYP3A4, human liver microsome; type: in vitro ADME
T2 construct: from tissue; host or cells: human liver microsomes
T2 sequence (P08684 whole entry): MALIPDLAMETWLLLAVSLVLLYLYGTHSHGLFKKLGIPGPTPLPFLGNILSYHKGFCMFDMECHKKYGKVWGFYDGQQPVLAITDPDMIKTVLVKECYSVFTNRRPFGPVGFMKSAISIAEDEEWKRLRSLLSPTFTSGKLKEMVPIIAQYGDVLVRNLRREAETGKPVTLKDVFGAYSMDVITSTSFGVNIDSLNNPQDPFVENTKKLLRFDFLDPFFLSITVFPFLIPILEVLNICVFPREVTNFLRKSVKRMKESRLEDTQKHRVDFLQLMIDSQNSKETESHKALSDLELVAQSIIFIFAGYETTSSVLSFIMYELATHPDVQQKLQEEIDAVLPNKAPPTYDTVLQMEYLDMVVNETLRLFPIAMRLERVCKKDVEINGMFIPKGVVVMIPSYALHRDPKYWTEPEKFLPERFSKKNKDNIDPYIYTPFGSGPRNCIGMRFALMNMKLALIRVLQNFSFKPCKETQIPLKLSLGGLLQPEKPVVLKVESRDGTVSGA
Procedure: as §1, §2, §3

[3] = molecular target: T3, CYP2B6 (Homo sapiens, UniProt P20813); experiment: Direct inhibition of CYP2B6, human liver microsome; type: in vitro ADME; conditions: probe bupropion, read-out: IC50 2B6 (Bupropion)
T3 construct: from tissue; host or cells: human liver microsomes
T3 sequence (P20813 1-491): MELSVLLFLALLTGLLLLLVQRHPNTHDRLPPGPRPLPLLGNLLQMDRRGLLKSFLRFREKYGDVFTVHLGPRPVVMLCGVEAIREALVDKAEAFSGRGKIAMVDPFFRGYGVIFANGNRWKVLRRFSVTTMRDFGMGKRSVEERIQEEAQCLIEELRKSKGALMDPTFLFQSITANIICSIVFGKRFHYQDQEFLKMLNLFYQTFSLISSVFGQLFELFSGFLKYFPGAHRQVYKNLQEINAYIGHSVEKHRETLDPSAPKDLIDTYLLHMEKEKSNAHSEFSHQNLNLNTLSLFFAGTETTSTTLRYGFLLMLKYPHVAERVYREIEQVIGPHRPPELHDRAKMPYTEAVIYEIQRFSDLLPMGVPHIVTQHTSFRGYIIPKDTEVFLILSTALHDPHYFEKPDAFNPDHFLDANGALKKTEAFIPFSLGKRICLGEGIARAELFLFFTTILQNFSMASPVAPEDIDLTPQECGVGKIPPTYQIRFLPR
Procedure: Research on Direct Inhibition of CYP2B6 and CYP2C8
100 μL human liver microsome (with final concentration of 0.2 mg/mL) was used for direct inhibition under warm incubation. The positive control system contained NADPH (with final concentration of 1 mmol/L), a mixture of positive inhibitors (ketoconazole 0.05 to 50 μmol/L, montelukast sodium 0.001 to 1 μmol/L), and a substrate mixture (with final concentration of amfepramone 50 μmol/L and paclitaxel 5 μmol/L), and the reaction was terminated after incubation for 20 min. The positive inhibitor was replaced with 0.1 to 100 μmol/L test compound in the test compound group. The reaction was terminated with acetonitrile containing […] internal standard tinidazole (1:3), vortexed for 10 min, centrifuged at 6000×g for 10 min, and 50 μL supernatant was taken and put into a 96-well plate for injection.
as §3

[4] = In vivo pharmacokinetics study in mice; conditions: male, ICR, mouse, plasma, po, iv 3 mg/kg, intragastric 10 mg/kg, read-out: Absolute bioavailability F
Procedure: In Vivo Pharmacokinetics Study in Rats and Mice
24 male ICR mices, with weight of 18 to 22 g. The mice were fasted for 12 to 16 hours before the experiment, without restricting drinking water. 24 mice were divided into 2 groups, 12 mice for each group. The first group was intravenously administrated with test compound (10 mL/kg, 0.3 mg/mL) at a dose of 3 mg/kg, 0.4 mL blood sample was taken from venous plexus of the fundus of the eye into a pre-heparinized centrifuge tube (sodium heparin solution 10 μL/tube) before administration and 2, 5, 15, 30, 60, 90, 120, 240, 360, 480, 720, 1440 min after administration, respectively. The second group was dosed with compound (20 mL/kg, 0.5 mg/mL) by intragastric administration at a dose of 10 mg/kg, 0.4 mL blood sample was taken from venous plexus of the fundus of the eye into a pre-heparinized centrifuge tube (sodium heparin solution 10 μL/tube) before administration and 5, 15, 30, 60, 90, 120, 240, 360, 480, 720, and 1440 min after administration, respectively. 2 to 3 time points were taken for each mouse. […]
Taking 50 μL plasma sample of rat or mouse, adding […] acetonitrile containing internal standard (propranolol, 2.5 ng/ml) to precipitate protein. Vortexing for 10 min, centrifuging at 6000 g for 10 min, the supernatant was taken and diluted with mobile phase in a 96-well plate, the drug concentration in plasma was measured by UPLC/MS-MS. […]

[5] = molecular target: T4, CYP2C9 (Homo sapiens, UniProt P11712); experiment: Direct inhibition of CYP2C9, human liver microsome; type: in vitro ADME; conditions: probe diclofenac, read-out: IC50 2C9 (Diclofenac)
T4 construct: from tissue; host or cells: human liver microsomes
T4 sequence (P11712 whole entry): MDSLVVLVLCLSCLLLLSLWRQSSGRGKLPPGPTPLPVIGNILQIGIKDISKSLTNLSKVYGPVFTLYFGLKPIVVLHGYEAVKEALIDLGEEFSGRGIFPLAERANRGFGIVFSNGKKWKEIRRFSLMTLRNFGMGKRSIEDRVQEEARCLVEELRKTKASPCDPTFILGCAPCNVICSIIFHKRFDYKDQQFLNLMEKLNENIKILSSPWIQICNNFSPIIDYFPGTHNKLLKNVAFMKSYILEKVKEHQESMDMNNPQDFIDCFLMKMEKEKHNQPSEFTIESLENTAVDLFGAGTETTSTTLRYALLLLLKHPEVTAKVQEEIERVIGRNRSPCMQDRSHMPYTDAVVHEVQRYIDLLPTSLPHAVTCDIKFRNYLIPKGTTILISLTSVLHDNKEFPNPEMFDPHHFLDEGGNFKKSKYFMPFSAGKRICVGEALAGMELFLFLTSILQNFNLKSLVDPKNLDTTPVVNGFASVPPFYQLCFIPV
Procedure: as §1, §2, §3

[6] = probe midazolam, read-out: IC50 3A4 (Midazolam)
[7] = probe testosterone, read-out: IC50 3A4 (testosterone)

Row | Compound | IC50 [1] | IC50 [2, 6] | IC50 [2, 7] | IC50 [3] | bioavailability [4] | IC50 [5]
1 | Cc1cc(Nc2ncnc3ccc(NC4=NC(C)(C)CO4)cc23)ccc1Oc1ccn2ncnc2c1 [ARRY-380, reference compound] | 94 µM | 11 µM | 11 µM | > 100 µM | 61% | 13 µM
2 | Cc1cc(Nc2ncnc3ccc(NC4=NC(C)(C)CO4)cc23)ccc1Oc1cc2nncn2cn1 [Embodiment 4, N^4-(4-([1,2,4]triazolo[4,3-c]pyrimidin-7-yloxy)-3-methylphenyl)-N^6-(4,4-dimethyl-4,5-dihydrooxazol-2-yl)quinazoline-4,6-diamine] | 34 µM | 25 µM | 21 µM | > 100 µM | 96.2% | 53 µM
